5 compounds from ChEMBL document CHEMBL1142886, “Substrate specificity analysis and inhibitor design of homoisocitrate dehydrogenase” (Bioorg Med Chem, 2007) can be followed below.

A short description of assay [1]: Inhibition of Deinococcus radiodurans homoisocitrate dehydrogenase.
Assay [2] concerns the target Homoisocitrate dehydrogenase, mitochondrial (Saccharomyces cerevisiae S288c, UniProt P40495). Nature of the assay: Inhibition of Saccharomyces cerevisiae homoisocitrate dehydrogenase expressed in Escherichia coli Rosetta cells above 10 mM.

What is called Ki is the dissociation constant of the complex between target and ligand, obtained from inhibition or displacement. A higher Ki goes with lower affinity.

Sequence of Homoisocitrate dehydrogenase, mitochondrial (P40495 whole entry): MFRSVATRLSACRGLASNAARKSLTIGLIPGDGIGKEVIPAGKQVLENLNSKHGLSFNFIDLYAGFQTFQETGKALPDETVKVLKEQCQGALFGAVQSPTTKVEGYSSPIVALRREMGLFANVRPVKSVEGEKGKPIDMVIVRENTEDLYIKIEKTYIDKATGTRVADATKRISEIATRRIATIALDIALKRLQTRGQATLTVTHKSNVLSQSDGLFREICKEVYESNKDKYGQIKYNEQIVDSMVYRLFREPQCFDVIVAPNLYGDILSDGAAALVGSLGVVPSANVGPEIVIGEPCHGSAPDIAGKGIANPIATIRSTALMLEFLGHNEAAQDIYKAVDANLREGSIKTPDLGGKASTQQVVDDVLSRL

As to `C=C[C@H](C(=O)O)[C@@H](O)C(=O)O`, in assay [1], the inhibition constant Ki was found to be 0.088 mM.
On to `O=C(O)/C(=C/CCO)[C@@H](O)C(=O)O`, for which the Ki in assay [1] was 5.2 mM; in assay [2] it was 1400 µM.
As for `O=C(O)/C(=C\CCO)[C@@H](O)C(=O)O`, the inhibition constant Ki was 15.3 mM in assay [1] and 510 µM in assay [2].
The corresponding values for `O=C(O)CC/C=C(\C(=O)O)[C@@H](O)C(=O)O` are 0.26 mM and 72 µM.
The corresponding values for `O=C(O)CC/C=C(/C(=O)O)[C@@H](O)C(=O)O` are 3.1 mM and 790 µM.
